According to patent publication US20220211687A1, “USE OF ARIMOCLOMOL IN THE TREATMENT OF NIEMANN PICK DISEASE” (Orphazyme A/S, priority 2020, published 2022):

Legend:
[1] = Safety evaluation (TEAEs), 12-month double-blind phase 2/3 trial; format: in vivo, human
Description: (§1) Routine clinical care was maintained throughout the trial (including administration of miglustat). Each participant was randomized to receive arimoclomol or placebo three times daily. Arimoclomol was administered orally or by feeding tube at 93-372 mg/day based on the patient's body weight up to the estimated equivalence of 372 mg/day for adults (body weight >55 kg) or of 124 mg three times a day.

[2] = Safety in open-label extension (OLE) of phase 2/3 trial
Description: All OLE patients received arimoclomol; routine clinical care, including miglustat, was maintained.

[3] = system: Niemann-Pick disease type C (NPC); assay: EQ-5D-3L Y proxy health-related quality of life, phase 2/3 trial; format: in vivo, human
Description: EQ-5D-3L Y proxy: The HRQoL of individuals in the trial was measured using the child-friendly version of the EQ-5D-3L Y proxy questionnaire. The questionnaire was completed by the patient's caregiver as a proxy for the individual.

[4] = system: Niemann-Pick disease type C (NPC); assay: 5-domain NPCCSS score, open-label extension (OLE) of phase 2/3 trial; format: in vivo, human
[5] = system: Niemann-Pick disease type C (NPC); assay: Clinical Global Impression-Improvement scale (CGI-I) responder analysis, phase 2/3 trial; format: in vivo, human
Description: (§2) During the 12-month treatment phase, efficacy assessments for the primary endpoint, the 5-domain NPCCSS score, and for the non-disease specific Clinical Global Impression—Improvement scale (CGI-I) scores were performed at baseline and after 3, 6, 9, and 12 months of treatment; all other efficacy and biomarker assessments were performed at baseline and after 6 and 12 months of treatment.
CGI-I: the CGI-I was originally developed as a research rating tool to assess psychiatric diseases (see Busner J, Targum SD. The clinical global impressions scale: applying a research tool in clinical practice. Psychiatry (Edgmont). 2007;4:28-37, incorporated herein by reference in its entirety). It provides the clinician's impression of improvement (or worsening) of a person's condition at the current visit compared with baseline on a 7-point scale ranging from 1 (very much improved) to 7 (very much worse). In the present trial, CGI-I was performed after clinical examination and patient interviews; the same investigator was instructed to perform CGI-I assessments throughout the trial for a given patient.

[6] = system: Niemann-Pick disease type C (NPC); assay: 17-domain (full) NPCCSS score excluding hearing domains, phase 2/3 trial; format: in vivo, human; settings: for Full NPCCSS score (excluding hearing domains), LS mean change from baseline, Arimoclomol vs placebo: Difference: p=0.5726
Description: As would be appreciated by the skilled artisan, progression of NPC in a subject can be tracked by a clinician using the NPC composite clinical severity scale (hereafter “NPCCSS”; see Yanjanin NM et al. Am J Med Genet B Neuropsychiatr Genet, 2010; 153B (1): 132-140, incorporated herein by reference in its entirety). A full “17-domain NPCCSS score” incorporates clinical signs and symptoms in nine major (ambulation, cognition, eye movement, fine motor, hearing, memory, seizures, speech, swallowing) and eight minor (auditory brainstem response, behavior, gelastic cataplexy, hyperreflexia, incontinence, narcolepsy, psychiatric, respiratory problems) domains to determine a score which describes the severity of the subject's NPC progression (a higher score, the more progressed/severe the disease is). An abridged “5-domain NPCCSS score” is also used by clinicians, and incorporates clinical signs and symptoms from the major domains of ambulation, cognition, fine motor, speech and swallowing (see Cortina-Borj a M et al. OrphanetJRare Dis, 2018; 13 (1): 143; 3, incorporated herein by reference in its entirety).
as §1

[7] = evidenced by presence in cerebrospinal fluid of treated ALS patients; cited from earlier work
[8] = system: Niemann-Pick disease type C (NPC)
[9] = system: Niemann-Pick disease type C (NPC); assay: Nine-hole peg test (9-HPT), phase 2/3 trial; format: in vivo, human; settings: for 9-HPT time, change from baseline to 12 months, LS mean: arimoclomol group
Description: 9-HPT: The 9-HPT is a direct and simple measurement of fine motor coordination, hand/eye coordination, and the ability to follow a simple direction, measured in seconds for each hand. The test is not applicable for children under 4 years of age. See Poole J L, Burtner PA, Torres TA, et al. Measuring dexterity in children using the Nine-hole Peg Test. J Hand Ther. 2005; 18:348-51.

[10] = system: Niemann-Pick disease type C (NPC); assay: 5-domain NPCCSS score, 12-month double-blind placebo-controlled phase 2/3 trial; format: in vivo, human; settings: for Responders on 5-domain NPCCSS score at 12 months, %: responder = stable or improved
Description: Patients enrolled in the trial were stratified by use of miglustat at baseline. Patients in both strata were randomized 2:1 to receive arimoclomol or placebo.
as §1, §2
Primary endpoint: The primary endpoint was change from baseline in NPC severity at 12 months as assessed by the 5-domain NPCCSS score, an abbreviated assessment tool originating from the 17 domain NPCCSS score developed by Yanjanin et al., as described herein. The fully validated 5-domain NPCCSS score comprises the domains determined to be most clinically relevant to patients, caregivers, and clinicians: ambulation, cognition, fine motor skills, speech, and swallowing. The total aggregated 5-domain NPCCSS score ranges from 0 to 25, with a higher score indicating more severe clinical impairment.
Subgroup analyses of primary endpoint: NPC is a heterogeneous disease, and patients aged 2 to 18 years present with a large spectrum of disease presentations. The group of children <4 years old includes patients with mild manifestations and patients with aggressive, early fatal disease. As this group is particularly heterogeneous, a subgroup of patients >4 years of age was predefined with the population of study participants.
In the EU, miglustat is indicated for the treatment of progressive neurological manifestations in patients with NPC. However, not all patients are candidates for miglustat treatment, and it is recommended that the benefit of treatment should be evaluated on a regular basis (e.g., every six months). An analysis of the subpopulation of patients receiving miglustat was prespecified to elucidate the effect of arimoclomol in patients on background miglustat treatment. Overall, the subgroups of patients ≥4 years of age, and patients on miglustat treatment, were expected to be more homogeneous with respect to baseline demographics and disease characteristics and therefore more suitable for comparison.
In the first post hoc analysis, subjects with double functional null mutations in NPC1 (NPC1 genotype of Functional Null/Functional Null) were excluded.

[11] = system: Niemann-Pick disease type C (NPC); assay: NPC clinical database (NPC-cdb) score, phase 2/3 trial; format: in vivo, human; settings: for NPC-cdb score change from baseline to 12 months, Arimoclomol vs placebo: Difference: p=0.3785
Description: Additional secondary endpoints included: change from baseline in scale for assessment and rating of ataxia (SARA) score at 6 and 12 months; change in the nine-hole peg test (9-HPT) result at 6 and 12 months; change in health-related quality of life (HRQoL) as measured by the 5-dimension 3-level EuroQol questionnaire, youth version (EQ-5D-3L Y proxy) at 6 and 12 months; change in individual 5-domain NPCCSS score at month 12; and NPC clinical database (NPC-cdb) score changes from baseline at trial time points. The NPC-cdb score aims to reflect clinical status; an increase in score indicates a reduction in the patient's abilities.

[12] = system: Niemann—Pick disease type C (NPC); settings: background statement; cited from earlier work

[O-][n+]1cccc(/C(Cl)=N/OC[C@H](O)CN2CCCCC2)c1 [Arimoclomol, N-[(2R)-2-hydroxy-3-piperidin-1-ylpropoxy]-1-oxidopyridin-1-ium-3-carboximidoyl chloride]
Tolerability ([1]; 12-month placebo-controlled trial): well tolerated
Number of patients with increase in serum creatinine level over 1.5 times baseline ([1]; arimoclomol group): Six
Number of patients with serum creatinine level over twice baseline ([1]; arimoclomol group): two
Patients with serious TEAEs ([1]; arimoclomol group 5/34): 14.7%
Patients with vomiting (most common TEAE) ([1]; arimoclomol group 8/34): 23.5%
Upper respiratory tract infection and decreased weight, frequency versus placebo ([1]; double-blind phase): occurred more frequently
Patients with TEAEs (adverse event incidence) ([1]; double-blind phase, 12 months, arimoclomol group 30/34): 88.2%
Changes in vital signs, electrocardiograms, or other laboratory values ([1]; during the trial): no significant changes
Patients with TEAEs that led to trial drug discontinuation ([1]; three patients, four TEAEs (urticaria x2, angioedema, increased blood creatinine)): 8.8%
Adverse events incidence ([2]; M12-24): 87.8%
Adverse events incidence ([2]; M24-36): 85.3%
Safety and tolerability ([2]; over 24 months): safe and well-tolerated
Tolerability ([2]; over 36 months): well tolerated
EQ-5D-3L Y proxy, Improved at 12 months, % ([3]; arimoclomol group): (25.9) %
EQ-5D-3L Y proxy, Worsened at 12 months, % ([3]; arimoclomol group): (44.4) %
EQ-5D-3L Y proxy, Worsened at 12 months, Arimoclomol vs placebo: Difference ([3]; p=0.1804): 24.4%
EQ-5D-3L Y proxy, Improved at 12 months, Arimoclomol vs placebo: Difference ([3]; p=0.4880): −14.1%
Benefit over a two-year period ([4]; 12-month OLE after 12-month double-blind part): sustained benefit
Treatment effect over 36 months ([4]; OLE, 36 months): sustained treatment effect
5D-NPCCSS mean (SD) change from baseline at M36 ([4]; arimoclomol-arimoclomol group, 3 years' arimoclomol treatment (DB and OLE)): 3.5 (5.6)
Progression in OLE compared to placebo-controlled part ([4]; patients who received arimoclomol for a total of two years, mainly due to patients under 4 years): greater progression
5-domain NPCCSS progression ([4]; patients who switched from placebo to arimoclomol, 12-month open label extension): 0.23
5D-NPCCSS mean (SD) change from baseline at M36 ([4]; placebo-arimoclomol group, 2 years' arimoclomol treatment (OLE only)): 0.9 (2.1)
Early treatment initiation versus delayed start of treatment ([4]; predefined subgroups: patients 4 years and older, patients receiving miglustat): greater benefit than delayed start of treatment
Benefit of sustained treatment across subgroups at M36 ([4]; subgroups: aged >4 years, treated with miglustat, without double functional null mutations): consistent benefit
Responders on CGI-I at 12 months, Arimoclomol vs placebo: Difference ([5]; p=1.0000): 2.6%
Responders on CGI-I at 12 months, % ([5]; responder = stable or improved, arimoclomol group): (58.8) %
Full NPCCSS score (excluding hearing domains), LS mean change from baseline ([6]; 12 months, arimoclomol group): 1.24
Full NPCCSS score (excluding hearing domains), LS mean change from baseline, Arimoclomol vs placebo: Difference ([6]; 12 months): −1.56
Full NPCCSS score (excluding hearing domains), LS mean change from baseline, Arimoclomol vs placebo: Difference ([6]; 12 months, listed as arimoclomol): numerically in favor of arimoclomol
Full NPCCSS score (excluding hearing domains) at 12 months, Mean ([6]; arimoclomol group n=25): 1.2
Full NPCCSS score (excluding hearing domains) at 12 months, Median ([6]; arimoclomol group n=25): 1.0
Blood-brain barrier penetration [7]: crosses the blood—brain barrier
SARA score change from baseline to 12 months, LS mean ([8]; arimoclomol group): 1.06
SARA score change from baseline to 12 months, Arimoclomol vs placebo: Difference ([8]; p=0.7899): 0.28
9-HPT time, change from baseline to 12 months, LS mean ([9]; Dominant hand): -3.29 s
9-HPT time, change from baseline to 12 months, Arimoclomol vs placebo: Difference ([9]; Dominant hand, p=0.7283): 3.20 s
9-HPT time, change from baseline to 12 months, LS mean ([9]; Non-dominant hand): 11.68 s
9-HPT time, change from baseline to 12 months, Arimoclomol vs placebo: Difference ([9]; Non-dominant hand, p=0.7708): -5.91 s
Change in 5-domain NPCCSS score from baseline at 12 months, mean change ([10]; individuals aged ≥4 years, arimoclomol group n=30 (24 at 12 months)): 0.44
Change in 5-domain NPCCSS score from baseline at 12 months, Arimoclomol vs placebo: Difference ([10]; individuals aged ≥4 years, p=0.0190): −1.75
Relative reduction in annual disease progression ([10]; individuals aged ≥4 years, vs placebo): 80%
Change in 5-domain NPCCSS score from baseline at 12 months, mean change ([10]; individuals not receiving miglustat, arimoclomol group n=8 (3 at 12 months)): 4.2
Change in 5-domain NPCCSS score from baseline at 12 months, Arimoclomol vs placebo: Difference ([10]; individuals not receiving miglustat, p=0.2835): 2.21
Change in 5-domain NPCCSS score from baseline at 12 months, mean change ([10]; individuals receiving miglustat, arimoclomol group n=26 (22 at 12 months)): −0.01
Change in 5-domain NPCCSS score from baseline at 12 months, Arimoclomol vs placebo: Difference ([10]; individuals receiving miglustat, p=0.0074): −2.01
Relative reduction in annual disease progression ([10]; individuals receiving miglustat, vs placebo): 101%
Relative reduction in annual disease progression ([10]; overall population, 5-domain NPCCSS, vs placebo): 63%
Change in 5-domain NPCCSS score from baseline at 12 months, mean change ([10]; overall population, arimoclomol group n=34 (27 at 12 months), 93-372 mg/day by body weight, three times daily): 0.80
Change in 5-domain NPCCSS score from baseline at 12 months, Arimoclomol vs placebo: Difference ([10]; overall population, p=0.0537): −1.34
Responders on 5-domain NPCCSS score at 12 months, Arimoclomol vs placebo: Difference ([10]; p=0.5456): 12.5%
Proportion worsening on 5-domain NPCCSS score at 12 months, Arimoclomol vs placebo: Difference ([10]; p=1.0000): 0.37%
Progression of NPC in prespecified subgroups (MMRM on 5-domain NPCCSS) ([10]; patients >4 years old (n=44) and patients concomitantly receiving miglustat (n=39), p<0.05): slowed progression of NPC
Relative reduction in annual disease progression ([10]; post hoc, baseline ASIS within 0.5 and 2): 93%
Change in 5-domain NPCCSS score, Arimoclomol vs placebo: Difference ([10]; post hoc, baseline ASIS within 0.5 and 2 (n=21), p=0.0536): −2.39
Change in 5-domain NPCCSS score from baseline at 12 months, mean change ([10]; post hoc, baseline ASIS within 0.5 and 2, arimoclomol n=13): 0.19
Relative reduction in annual disease progression ([10]; post hoc, excluding individuals with double functional null mutations): 77%
Change in 5-domain NPCCSS score from baseline at 12 months, mean change ([10]; post hoc, excluding individuals with double functional null mutations, arimoclomol n=31): 0.47
Change in 5-domain NPCCSS score, Arimoclomol vs placebo: Difference ([10]; post hoc, excluding individuals with double functional null mutations, p=0.0242): −1.56
Responders on 5-domain NPCCSS score at 12 months, % ([10]; arimoclomol group n=34): (50.0) %
Responders on 5-domain NPCCSS score at 12 months, % ([10]; arimoclomol group n=34, listed as arimoclomol): 50.0%
Time to worsening on 5-domain NPCCSS score ([10]; time until worsened by 2 points vs baseline, arimoclomol group): 3.68 months
Proportion worsening on 5-domain NPCCSS score at 12 months, % ([10]; worsening by 2 points vs baseline, arimoclomol group n=34): (44.1) %
NPC-cdb score change from baseline to 12 months, LS mean ([11]; arimoclomol group): 1.85
NPC-cdb score change from baseline to 12 months, Arimoclomol vs placebo: Difference [11]: −3.03
NPC-cdb score change from baseline to 12 months, Arimoclomol vs placebo: Difference ([11]; listed as arimoclomol): numerically in favor of arimoclomol

CCCCN1C[C@H](O)[C@@H](O)[C@H](O)[C@H]1CO [miglustat, (2R,3R,4R,5 S)-1-butyl-2-(hydroxymethyl)piperidine-3 ,4,5-triol]
Effect on slowing NPC disease progression [12]: only a modest effect on slowing disease progression
